A word on the IC50: it is the concentration at which inhibition is half-maximal. A word on the inhibition: it is how much of the control response was suppressed.

One assay concerns the target T1, uterine OT receptors (Rattus norvegicus, UniProt P70536).
T1 construct: crude membrane preparation of uteri; from tissue; host or cells: uterus of DES-treated rats, crude membranes
T1 sequence (P70536 1-388): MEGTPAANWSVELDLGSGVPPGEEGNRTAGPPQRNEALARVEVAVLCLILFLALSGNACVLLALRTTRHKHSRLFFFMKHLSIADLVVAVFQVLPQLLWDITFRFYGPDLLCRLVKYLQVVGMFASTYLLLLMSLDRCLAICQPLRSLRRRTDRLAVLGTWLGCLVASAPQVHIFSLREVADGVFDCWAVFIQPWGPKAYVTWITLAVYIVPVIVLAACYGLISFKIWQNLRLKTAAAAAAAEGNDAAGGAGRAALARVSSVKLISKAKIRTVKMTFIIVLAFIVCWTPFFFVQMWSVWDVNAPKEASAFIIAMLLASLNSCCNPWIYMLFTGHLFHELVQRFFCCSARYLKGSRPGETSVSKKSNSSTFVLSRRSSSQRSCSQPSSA
The experiment in a line: Radioligand binding: competition of [^3 H]oxytocin binding to rat uterine membranes. To be noted: 1 nM [^3 H]OT, rat uterus membranes, 60 minutes, 22° C., pH 7.4; read-out: IC50. The text has this: RADIOGLIGAND BINDING ASSAYS
The high affinity binding of [^3 H]
As for `Cc1ccccc1N1CCN(S(=O)(=O)CC23CCC(C=C2C(=O)NCCc2c[nH]cn2)C3(C)C)CC1` (stereo not drawn) [Example 58, 1-((7,7-Dimethyl-2-(4-imidazolyl)ethylaminocarbonyl-bicyclo(2.2.1)hept-2-en-1-yl)methanesulfonyl)-4-(2-methylphenyl)piperazine], the IC50 was found to be 120 nM.
With `COC(=O)C1CC2CCC1(CS(=O)(=O)N1CCN(c3ccccc3C)CC1)C2(C)C` (stereo not drawn) [Example 59, 1-((7,7-Dimethyl-2-endo-methoxycarbonyl-bicyclo-(2.2.1)heptan-1-yl)methanesulfonyl)-4-(2-methyl-phenyl)piperazine], the IC50 was 260 nM.
`Cc1ccccc1N1CCN(S(=O)(=O)CC23CCC(CC2C(=O)NCCc2c[nH]cn2)C3(C)C)CC1` (stereo not drawn) [Example 61, 1-((7,7-Dimethyl-2-endo-(4-imidazolyl)ethylamino-carbonyl-bicyclo-(2.2.1)heptan-1-yl)methanesulfonyl)-4-(2-methylphenyl)piperazine]: the IC50 was found to be 35 nM.
On the same count and under the same terms, under `Cc1ccccc1N1CCN(S(=O)(=O)CC23CCC(CC2O)C3(C)C)C(C)C1` (stereo not drawn) [Example 68, 1-((7,7-Dimethyl-2-exo-hydroxy-bicyclo(2.2.1)heptan-1-yl)methanesulfonyl)-4-(2-methylphenyl)-2-methyl-piperazine] stands 460 nM.
For the molecule `Cc1ccccc1N1CCN(S(=O)(=O)CC23CCC(CC2NC(=O)[C@H](CCS(C)(=O)=O)NC(=O)OC(C)(C)C)C3(C)C)CC1` (stereo partly drawn) [Example 71, 1-((7,7-Dimethyl-2-endo-(2S-(tert-butyloxycarbonyl-amino)-4-(methylsulfonyl)-butyramido)-bicyclo(2.2.1)-heptan-1-yl)methanesulfonyl)-4-(2-methylphenyl)-piperazine], the IC50 was 7.7 nM.
On the same count and under the same terms, under `Cc1ccccc1N1CCN(S(=O)(=O)CC23CCC(CC2NC(=O)[C@@H](N)CCS(C)(=O)=O)C3(C)C)CC1` (stereo partly drawn) [Example 72, 1-((7,7-Dimethyl-2-endo-(2S-amino-4-(methylsulfonyl)-butyramido)bicyclo(2.2.1)heptan-1-yl)methanesulfonyl)-4-(2-methylphenyl)piperazine] stands 1.2 nM; under `Cc1ccccc1N1CCN(S(=O)(=O)CC23CCC(CC2NC(=O)[C@H](CCS(C)(=O)=O)NC(=O)Cc2c[nH]cn2)C3(C)C)CC1` (stereo partly drawn) [Example 73, 1-((7,7-Dimethyl-2-endo-(2S-(imidazol-4-ylacetyl-amino)-4-(methylsulfonyl)butyramido)-bicyclo(2.2.1)-heptan-1-yl)methanesulfonyl)-4-(2-methylphenyl)-piperazine], 5.4 nM.

The assay is the same for the next values; noted with them: read-out: % inhibition at 100 nM.
Consider `Cc1ccccc1N1CCN(S(=O)(=O)C[C@]23CC[C@H](CC2=CCN)C3(C)C)CC1` [Example 52, 1-((7,7-dimethyl-2-(2-amino)ethylidine-bicyclo-(2.2.1)heptan-1-yl)methanesulfonyl)-4-(2-methyl-phenyl)piperazine], for which the inhibition at 0.1 µM was 36%.
Still for that read-out and setting: the result for `Cc1ccccc1N1CCN(S(=O)(=O)CC23CCC(CC2C(=O)O)C3(C)C)CC1` (stereo not drawn) [Example 60, 1-((7,7-Dimethyl-2-endo-carboxy-bicyclo(2.2.1)heptan-1-yl)methanesulfonyl)-4-(2-methylphenyl)piperazine] reads 34%.
For the molecule `COC(=O)C1CC(=O)N(CC(C)C2(O)CC3CCC2(CS(=O)(=O)N2CCN(c4ccccc4C)CC2)C3(C)C)C1` (stereo not drawn) [Example 62, 1-((7,7-dimethyl-2-exo-hydroxy-2-endo-2-(1-(3-methoxycarbonyl)-2-pyrrolidinon-1-yl)propylbicyclo-(2.2.1)heptan-1-yl)methanesulfonyl)-4-(2-methylphenyl)piperazine], the inhibition at 0.1 µM was 37%.
The same measure, in the same setting: under `Cc1ccccc1N1CCN(S(=O)(=O)CC23CCC(CC2(O)C(C)CNCc2ccncc2)C3(C)C)CC1` (stereo not drawn) [Example 63, 1-((7,7-Dimethyl-2-exo-hydroxy-2-endo-2-(1-(4-pyridinyl)methylamino)-propyl-bicyclo(2.2.1)heptan-1-yl)methanesulfonyl)-4-(2-methylphenyl)-piperazine] stands 35%; under `Cc1ccccc1N1CCN(S(=O)(=O)CC23CCC(CC2N)C3(C)C)CC1` (stereo not drawn) [Example 70, 1-((7,7-Dimethyl-2-endo-amino-bicyclo(2.2.1)heptan-1-yl)methanesulfonyl)-4-(2-methylphenyl)-piperazine], 91%.

The same assay, now with this note: read-out: % inhibition at 1000 nM.
`Cc1ccccc1N1CCN(S(=O)(=O)C[C@]23CC[C@H](CC2=CCN=[N+]=[N-])C3(C)C)CC1` [Example 51, 1-((7,7-dimethyl-2-(2-azido)ethylidine-bicyclo-(2.2.1)heptan-1-yl)methanesulfonyl)-4-(2-methyl-phenyl)piperazine]: the inhibition at 1 µM was 64%.
For `Cc1ccccc1N1CCN(S(=O)(=O)C[C@]23CC[C@H](CC2=CCNC(=O)Cc2c[nH]cn2)C3(C)C)CC1` [Example 53, 1-((7,7-dimethyl-2-(2-(4(5)-imidazolylacetyl)amino)-ethylidine-bicyclo(2.2.1)heptan-1-yl)methane-sulfonyl)-4-(2-methylphenyl)piperazine], the inhibition at 1 µM was found to be 75%.
On the same count and under the same terms, under `Cc1ccccc1N1CCN(S(=O)(=O)C[C@]23CC[C@H](C[C@]2(O)CNCC(C)C)C3(C)C)CC1` [Example 55, 1-((7,7-Dimethyl-2-exo-hydroxy-2-endo-isobutylamino-methylbicyclo(2.2.1)heptan-1-yl)methanesulfonyl)-4-(2-methylphenyl)piperazine] stands 72%; under `COC(=O)C1=C[C@H]2CC[C@]1(CS(=O)(=O)N1CCN(c3ccccc3C)CC1)C2(C)C` [Example 56, 1-((7,7-Dimethyl-2-methoxycarbonyl-bicyclo(2.2.1)hept-2-en-1-yl)methanesulfonyl)-4-(2-methylphenyl)-piperazine], 38%; under `Cc1ccccc1N1CCN(S(=O)(=O)C[C@]23CC[C@H](C=C2C(=O)O)C3(C)C)CC1` [Example 57, 1-((7,7-Dimethyl-2-carboxy-bicyclo(2.2.1)hept-2-en-1-yl)methanesulfonyl)-4-(2-methylphenyl)piperazine], 78%.
Turning to `CCOC(=O)C(CC=C1CC2CCC1(CS(=O)(=O)N1CCN(c3ccccc3C)CC1)C2(C)C)(NC(C)=O)C(=O)OCC` (stereo not drawn) [Example 64, 1-((7,7-Dimethyl-2-(3-acetamido-3,3'-di(ethoxycarbonyl))propylidine-bicyclo(2.2.1)heptan-1-yl)methanesulfonyl)-4-(2-methylphenyl)piperazine], the inhibition at 1 µM was found to be 78%.
Same read-out and setting: the result for `Cc1ccccc1N1CCN(S(=O)(=O)CC23CCC(CC2=O)C3(C)C)C(C)C1=O` (stereo not drawn) [Example 67, 1-((7,7-Dimethyl-2-oxo-bicyclo(2.2.1)heptan-1-yl)-methanesulfonyl)-4-(2-methylphenyl)-2-methyl-3-piperazinone] reads 37%.

Still in this assay, the particulars now being: read-out: % inhibition at 10,000 nM.
With `CC(=O)NC(CC=C1CC2CCC1(CS(=O)(=O)N1CCN(c3ccccc3C)CC1)C2(C)C)C(=O)O` (stereo not drawn) [Example 65, 1-((7,7-Dimethyl-2-(3-acetamido-3-carboxy)propylidine-bicyclo(2.2.1)heptan-1-1 methanesulfonyl)-4-2-methylphenyl)piperazine], the inhibition at 10 µM came to 16%.
For `Cc1ccccc1N1CCN(S(=O)(=O)CC23CCC(CC2=O)C3(C)C)CC1=O` (stereo not drawn) [Example 66, 1-((7,7-Dimethyl-2-oxo-bicyclo(2.2.1)heptan-1-yl)methanesulfonyl)-4-(2-methylphenyl)-3-piperazinone], the inhibition at 10 µM came out at 5%.

(Values after patent US5686454A, “Camphorcarbonyl” (Merck & Co., Inc., priority 1996, dated 1997).)
